In patent publication US4363805A, “Aminodesoxy-1.4;3.6-dianhydrohexitol nitrates and pharmaceutical composition” (Firma Willmar Schwabe, priority 1980, dated 1982):

Tests used:
[1] = test system: narcotised guinea pigs; experiment: Blood pressure experiments on guinea pigs, i.v.; type: in vivo, guinea pig; conditions: for blood pressure before: before administration
[2] = test system: isolated guinea pig hearts; experiment: Experiments on Langendorff hearts (coronary flowthrough, inotropism, frequency); conditions: Cavia porcellus, read-out: flowthrough, percentage change with regard to the initial value
Description: After reaching the stationary state in the 30th minute, the hearts were each perfused with 50 ml. tyrode solution with a content of test substance of, in each case, 25 μg./ml. Each test substance was tested on 3-6 hearts.
In each case, there was measured the inotropism, the flowthrough and the frequency, whereby the values given in Table I are average values of the percentage changes in comparison with the initial values.

[3] = test system: mongrel cats; experiment: Inotropic and heart-circulatory effectiveness on narcotised cats, intravenous; type: in vivo, cat; conditions: 6 animals
[4] = 0.25 mg/kg i.v., before administration

O=[N+]([O-])O[C@@H]1CO[C@H]2[C@@H]1OC[C@@H]2O [ISMN, 1.4;3.6-dianhydro-D-glucitol 2-nitrate, reference compound]
blood pressure Δ ([1]; 0.25 mg/kg i.v.): -3.70 mm.Hg | blood pressure Δ ([1]; 1.00 mg/kg i.v.): -6.30 mm.Hg | blood pressure Δ ([1]; 2.50 mg/kg i.v.): -10.90 mm.Hg | activation at 25 µg/mL [2]: 9.11%

CC(C)(C)C(=O)N[C@H]1CO[C@H]2[C@@H]1OC[C@@H]2O[N+](=O)[O-] [Example 5, 5-Pivaloylamino-5-desoxy-1.4;3.6-dianhydro-L-iditol 2-nitrate]
blood pressure after ([1]; 0.25 mg/kg i.v.): 54.00 ± 2.52 mm.Hg | blood pressure Δ ([1]; 0.25 mg/kg i.v.): -10.50 mm.Hg | blood pressure before ([1]; 0.25 mg/kg i.v.): 64.50 ± 2.75 mm.Hg | blood pressure after ([1]; 1.00 mg/kg i.v.): 40.50 ± 3.66 mm.Hg | blood pressure Δ ([1]; 1.00 mg/kg i.v.): -22.75 mm.Hg | blood pressure after ([1]; 2.50 mg/kg i.v.): 30.75 ± 8.60 mm.Hg | blood pressure Δ ([1]; 2.50 mg/kg i.v.): -31.75 mm.Hg | blood pressure-lowering effectiveness (in words) ([1]; i.v.): stronger action than ISDN | activation at 25 µg/mL [2]: 21.2%

O=[N+]([O-])O[C@H]1CO[C@H]2[C@@H]1OC[C@H]2NCC(O)COc1cccc2ccccc12 (stereo partly drawn) [Example 55, 5-[2-Hydroxy-3-(1-naphthyloxy)-propylamino]-5-desoxy-1.4;3.6-dianhydro-D-glucitol 2-nitrate]
blood pressure before [3, 4]: 113.8 mm.Hg | dp/dt (inotropism) before [3, 4]: 5633 mm.Hg/sec | heart frequency before [3, 4]: 161.7 min⁻¹ | blood pressure WD ([3]; 0.25 mg/kg i.v.): 4.8 min | blood pressure after ([3]; 0.25 mg/kg i.v.): 107.0 mm.Hg | blood pressure Δ ([3]; 0.25 mg/kg i.v.): -6.8 mm.Hg | dp/dt (inotropism) after ([3]; 0.25 mg/kg i.v.): 5200 mm.Hg/sec | dp/dt (inotropism) Δ ([3]; 0.25 mg/kg i.v.): -433 mm.Hg/sec | dp/dt WD ([3]; 0.25 mg/kg i.v.): 4.2 min | heart frequency after ([3]; 0.25 mg/kg i.v.): 164.7 min⁻¹ | heart frequency Δ ([3]; 0.25 mg/kg i.v.): +3.0 min^-1 | blood pressure WD ([3]; 0.50 mg/kg i.v.): 2.8 min | blood pressure after ([3]; 0.50 mg/kg i.v.): 98.8 mm.Hg | blood pressure Δ ([3]; 0.50 mg/kg i.v.): -12.7 mm.Hg | dp/dt (inotropism) after ([3]; 0.50 mg/kg i.v.): 4667 mm.Hg/sec | dp/dt (inotropism) Δ ([3]; 0.50 mg/kg i.v.): -533 mm.Hg/sec | dp/dt WD ([3]; 0.50 mg/kg i.v.): 5.2 min | heart frequency after ([3]; 0.50 mg/kg i.v.): 157.3 min⁻¹ | heart frequency Δ ([3]; 0.50 mg/kg i.v.): +2.0 min^-1 | blood pressure WD ([3]; 1.00 mg/kg i.v.): 5.2 min | blood pressure after ([3]; 1.00 mg/kg i.v.): 96.8 mm.Hg | blood pressure Δ ([3]; 1.00 mg/kg i.v.): -18.2 mm.Hg | dp/dt (inotropism) after ([3]; 1.00 mg/kg i.v.): 4000 mm.Hg/sec | dp/dt (inotropism) Δ ([3]; 1.00 mg/kg i.v.): -1117 mm.Hg/sec | dp/dt WD ([3]; 1.00 mg/kg i.v.): 8.9 min | heart frequency after ([3]; 1.00 mg/kg i.v.): 154.0 min⁻¹ | heart frequency Δ ([3]; 1.00 mg/kg i.v.): -1.3 min⁻¹ | blood pressure WD ([3]; 2.50 mg/kg i.v.): 6.3 min | blood pressure after ([3]; 2.50 mg/kg i.v.): 94.3 mm.Hg | blood pressure Δ ([3]; 2.50 mg/kg i.v.): -26.0 mm.Hg | dp/dt (inotropism) after ([3]; 2.50 mg/kg i.v.): 3517 mm.Hg/sec | dp/dt (inotropism) Δ ([3]; 2.50 mg/kg i.v.): -1266 mm.Hg/sec | dp/dt WD ([3]; 2.50 mg/kg i.v.): > 7.8 min | heart frequency after ([3]; 2.50 mg/kg i.v.): 148.0 min⁻¹ | heart frequency Δ ([3]; 2.50 mg/kg i.v.): 0 min⁻¹ | activation at 25 µg/mL [2]: 203%

CCN[C@H]1CO[C@H]2[C@@H]1OC[C@@H]2O[N+](=O)[O-] [10 b]
blood pressure after ([1]; 0.25 mg/kg i.v.): 37.25 ± 2.06 mm.Hg | blood pressure Δ ([1]; 0.25 mg/kg i.v.): -6.00 mm.Hg | blood pressure before ([1]; 0.25 mg/kg i.v.): 43.25 ± 2.21 mm.Hg | blood pressure after ([1]; 1.00 mg/kg i.v.): 32.00 ± 2.04 mm.Hg | blood pressure Δ ([1]; 1.00 mg/kg i.v.): -11.25 mm.Hg | blood pressure after ([1]; 2.50 mg/kg i.v.): 27.25 ± 1.60 mm.Hg | blood pressure Δ ([1]; 2.50 mg/kg i.v.): -15.50 mm.Hg | activation at 25 µg/mL [2]: 25.9%
